Results on one compound are retold here after patent US11986478B2 (priority 2021, dated 2024).

One assay deals with SARS2-PLpro K157A mutant (Severe acute respiratory syndrome coronavirus 2, UniProt P0DTD1, K1720A). Type of assay: biochemical, SARS-CoV-2.
For assay [1], the system named is SARS-CoV-2 variants of concern B.1.1.7 (Alpha), B.1.351 (Beta) and B.1.617.2 (Delta). The assay can be described thus: microbe, parasite or virus in culture. Type of assay: cell-based. Particulars: Severe acute respiratory syndrome coronavirus 2, VeroE6/TMPRSS2, read-out: EC50 against SARS-CoV-2 variants of concern.

Broadly, the EC50 is the concentration at which the effect is half-maximal. Take `O=C(Nc1ccccc1Cl)c1sc(=S)n2c1[nH]c(=O)c1ccccc12` [Compound F0213]: on SARS2-PLpro K157A mutant, the “effect of K157A substitution on inhibitory potency” value is given as “significantly diminished the inhibitory potency”. Further, the EC50 in assay [1] was in the range of 2.2 to 4.8 µM.
